# Results reported in patent US11247993B2, “Pyridone derivative, composition and use as antiviral drug thereof” (priority 2018, dated 2022).
# Where two headings read alike, the source gives them in different places.
# What was measured:
# [1] = test system: influenza A virus (H1N1, A/WSN/33); assay: Efficacy on mice, IAV mouse infection model; format: in vivo, Female BALB/c mice; details: 15 mpk orally twice a day
# From the text: Female BALB/c mice were inoculated with influenza A virus (H1N1, A/WSN/33) by intranasal administration to establish an IAV mouse infection model. The vehicle, Compound III-2 (15 mpk) or oseltamivir phosphate (15 mpk) were orally administered twice a day. Animal weight and survival status were monitored daily during the test, and on the 5th day, some animals were killed to take lung tissue for virus titer detection, and the remaining mice were used for survival rate monitoring. The in vivo anti-influenza virus efficacy of the test compound was determined by virus titer in lung tissue, mouse body weight change and survival rate.
# [2] = set-up: species or system SD rats; details: SD, rat, in vivo, po, 3 mg/kg
# Description: Intragastric administration: about 4 mg of Compound III-2 was accurately weighed out and added with appropriate amount of PEG400, followed by vortex to a clean solution. An appropriate volume of 30% Solutol HS-15 aqueous solution and saline were added, and followed by vortex to give a pharmaceutical preparation of a concentration of 0.3 mg·mL^−1, with PEG400: 30% Solutol HS-15: saline=2:2:6 (v/v/v). SD rats were given a single oral administration of 3.0 mg·kg^−1 of Compounds III-2, and the concentration of Compound II-6 in the plasma of S-D rats was determined before administration and 0.25 h, 0.5 h, 1 h, 2 h, 4 h, 8 h, 12 h and 24 h after administration.
# [3] = test system: influenza virus A/PR/8/34 (H1N1); assay: organism not typed; format: cell-based; details: 120 h
# in vitro = format: cell-based; details: dog
# Description: Method for cytotoxicity study: The cytotoxicity assay and antiviral activity assay of the compounds were performed in parallel, except for the absence of virus, other experimental conditions were consistent with the antiviral activity assay. After 5 days of culture, the cell viability was measured using the cell viability detection kit CCK8. Raw data were used for calculating compound cytotoxicity (CC50) (see Table 1 for results).
# in vivo = assay: in vivo; set-up: species or system SD rats; details: SD, rat, iv, 0.25 mg/kg
# Description: Intravenous injection: about 2 mg of Compound 11-5, Compound 11-6 and Compound 1-77 were accurately weighed out and added with appropriate amount of DMA, followed by vortex to a clean solution. An appropriate volume of 30% Solutol HS-15 aqueous solution and saline were added and vortexed, so that DMA: 30% Solutol HS-15: saline was 20:20:60 (v/v/v). The solution was filtered to give a 0.05 mg·mL^−1 pharmaceutical preparation. SD rats were given a single injection of 0.25 mg·kg^−1 of Compounds 11-5, 11-6 and 1-77 intravenously. 0.20 mL of blood was collected from the jugular vein before administration and 0.083 h, 0.25 h, 0.5 h, 1 h, 2 h, 4 h, 8 h, 12 h and 24 h after administration, and placed in an EDTA-K2 anticoagulation tube. 150 μL of whole blood was accurately pipetted immediately, and added into a test tube to which 450 μL of acetonitrile has been added to precipitate proteins, and the tube was vortexed, and placed on wet ice. It was stored in a −90˜−60° C. refrigerator for biological sample analysis. The concentration of the corresponding compound in the plasma of S-D rats was determined by LC-MS/MS analysis. The corresponding pharmacokinetic parameters were calculated using a non-compartmental model in Pharsight Phoenix 7.0.
# [4] = MDCK cells, A/PR/8/34 (H1N1), 5 days, CCK8, read-out: EC50
Structure (SMILES),"EC50 [3, 4]",CC50 at 5 days (in vitro),also measured
COC(=O)OCOc1c2n(ccc1=O)N([C@@H]1c3ccccc3SCc3c1ccc(F)c3F)[C@@H]1COC3(CC3)CN1C2=O [III-2],,,"Body weight change ([1]; infected mice, during the experiment): remained stable; Survival rate ([1]; infected mice, to the predetermined experimental end point): 100%; Mean difference of virus titer compared with the solvent group ([1]; mice, 5th day after infection): 3.92 Log 10 (number of plaques per gram of lung tissue); Influenza Virus Titer in lung tissue ([1]; mice, 5th day after infection, 15 mg/kg): 3.28 Log10 (plaques number/gram of; Influenza Virus Titer in lung tissue ([1]; mice, 5th day after infection, listed as Compound III-2, 15 mg/kg): 3.28 ± 0.2813 Log10 (plaques number/gram of; AUC(0-t) [2]: 1377 ng·h/mL; Cmax [2]: 253 ng/mL; F [2]: 47.2%; T1/2 [2]: 3.32 h; Tmax [2]: 1.67 h"
O=C1c2c(O)c(=O)ccn2N([C@@H]2c3ccccc3SCc3cccc(F)c32)[C@@H]2COC3(CC3)CN12 [II-18],0.28 nM,> 1000 nM,
O=C1c2c(O)c(=O)ccn2N([C@@H]2c3ccccc3SCc3c2ccc(F)c3F)[C@@H]2CC=CCN12 [II-66],0.18 nM,> 1000 nM,
O=C1c2c(O)c(=O)ccn2N([C@@H]2c3ccccc3SCc3c2ccc(F)c3F)CN1C12CC(C1)C2 [Compound I-77],0.16 nM,> 1000 nM,AUC(0-t) (in vivo): 307 ng·h/mL; Vd (in vivo): 2.77 L/kg; clearance (in vivo): 13 mL/min/kg; half-life (in vivo): 178 min
O=C1c2c(O)c(=O)ccn2N([C@@H]2c3ccccc3SCc3c2ccc(F)c3F)CN1C1C2CC1C2 (some centres unmarked) [Compound I-65],0.37 nM,> 1000 nM,
O=C1c2c(O)c(=O)ccn2N([C@@H]2c3ccccc3SCc3cccc(F)c32)CN1C1CC2(CCC2)C1 [Compound I-21],0.6 nM,> 1000 nM,
O=C1c2c(O)c(=O)ccn2N([C@@H]2c3ccccc3SCc3cccc(F)c32)[C@@H]2COCC3(CC3)N12 [II-17],,> 1000 nM,EC50 ([3]; MDCK): 0.26 nM
O=C1c2c(O)c(=O)ccn2N([C@@H]2c3ccccc3SCc3c(F)cccc32)[C@@H]2COCC3(CC3)N12 [II-9],,> 1000 nM,EC50 ([3]; MDCK): 0.28 nM
O=C1c2c(O)c(=O)ccn2N([C@@H]2c3ccccc3SCc3c2ccc(F)c3F)CN1C1CC2(CCC2)C1 [Compound I-5],0.44 nM,> 1000 nM,
COCC1CN2C(=O)c3c(O)c(=O)ccn3N([C@@H]3c4ccccc4SCc4c3ccc(F)c4F)[C@@H]2CO1 (some centres unmarked) [II-29],0.57 nM,> 1000 nM,
O=C1c2c(O)c(=O)ccn2N([C@@H]2c3ccccc3SCc3c2ccc(F)c3F)[C@@H]2C/C(=C/F)CCN12 [II-67],0.48 nM,> 1000 nM,
O=C1c2c(O)c(=O)ccn2N([C@@H]2c3ccccc3SCc3c2ccc(F)c3F)CN1C1CC2(CC2)C1 [Compound I-14],0.32 nM,> 1000 nM,
O=C1c2c(O)c(=O)ccn2N([C@H]2c3ccc(F)cc3CSc3ccccc32)[C@@H]2COC3(CC3)CN12 [II-14],0.31 nM,> 1000 nM,
O=C1c2c(O)c(=O)ccn2N([C@@H]2c3ccccc3SCc3c(F)cccc32)CN1C12CC(C1)C2 [Compound I-81],0.19 nM,> 1000 nM,
O=C1c2c(O)c(=O)ccn2N([C@H]2c3ccccc3CSc3ccccc32)CN1C12CC(C1)C2 [Compound I-69],0.35 nM,> 1000 nM,
O=C1c2c(O)c(=O)ccn2N([C@@H]2c3ccccc3SCc3c2ccc(F)c3F)CN1CCOC1CC1 [Compound I-7],0.83 nM,> 1000 nM,
O=C1c2c(O)c(=O)ccn2N([C@@H]2c3ccccc3SCc3c(F)cccc32)[C@@H]2COC3(CC3)CN12 [II-10],0.24 nM,> 1000 nM,
O=C1c2c(O)c(=O)ccn2N([C@@H]2c3ccccc3SCc3cccc(F)c32)CN1C12CC(C1)C2 [Compound I-85],0.18 nM,> 1000 nM,
O=C1c2c(O)c(=O)ccn2N([C@H]2c3ccccc3CSc3ccccc32)[C@@H]2COC3(CC3)CN12 [II-2],0.51 nM,> 1000 nM,
